Consider one compound from the supplement of paper PMC11061612.

The structures appear in SMILES notation.

Assay in all cases: Bliss excess, mean over the matrix (fraction); higher = more synergy
The test system of assay [1] is PANC-02-03 (Pancreatic Carcinoma). The method in brief: (§1)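 Cell lines grown in DMEM/F12 or RPMI with 10% FBS were plated in 1536-well plates and held 24 hours at 37°C, 5% CO2 before 72 hours of exposure to two-drug dose matrices, with DMSO typically at 0.2%. CellTiter-Glo 2.0 luminescence gave viability, which was converted to inhibition. Vehicle wells were set to 0 and blank wells to 1. Combination Emax is the second-highest inhibition in the matrix, and Bliss excess is the observed combination effect minus the expected EA + EB − EA·EB, where EA and EB are the single-agent effects.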

In assay [2] the test system is HuO-3N1 (Osteosarcoma). Put shortly: as §1
Assay [3] relates to LAMA-84 (Chronic Myelogenous Leukemia). Put shortly: as §1
The test system of assay [4] is CHL-1 (Melanoma). The method in brief:
as §1

Assay [5] has as its system RMG-I (Ovarian Carcinoma). The method in brief: as §1
In assay [6] the test system is NCI-H1755 (Lung Adenocarcinoma). The method in brief:
as §1

Assay [7] concerns SK-MM-2 (Plasma Cell Myeloma). The method in brief: as §1
The subject of assay [8] is KYSE-70 (Esophageal Squamous Cell Carcinoma). Put shortly: as §1
Assay [9] has as its system ES-2 (Ovarian Carcinoma). The method in brief: as §1
Assay [10] has as its system FLO-1 (Esophageal Adenocarcinoma). The method in brief: as §1
Assay [11] concerns CML-T1 (Chronic Myelogenous Leukemia). Put shortly: as §1
Assay [12] has as its system KYM-1 (Rhabdomyosarcoma). The method in brief:
as §1

Assay [13] concerns HCC-44 (Lung Adenocarcinoma). The method in brief: as §1
Assay [14] relates to LOUCY (T-Lymphoblastic Leukemia). The method in brief: as §1
The subject of assay [15] is SW684 (Other Solid Carcinomas). The method in brief:
as §1

Assay [16] deals with NKM-1 (Acute Myeloid Leukemia). The method in brief:
as §1

Assay [17] concerns OV-90 (Ovarian Carcinoma). Put shortly:
as §1

The subject of assay [18] is NCI-H810 (Non-Small Cell Lung Carcinoma). The method in brief:
as §1

The subject of assay [19] is Becker (Low Grade Glioma). Put shortly: as §1
For assay [20], the system named is EB-3 (Burkitt's Lymphoma). Put shortly:
as §1

Consider `CS(=O)(=O)CCNCc1ccc(-c2ccc3ncnc(Nc4ccc(OCc5cccc(F)c5)c(Cl)c4)c3c2)o1` [Lapatinib] + NC1(c2ccc(-c3nc4ccn5c(=O)[nH]nc5c4cc3-c3ccccc3)cc2)CCC1 [MK-2206] (first compound max 10 µM, 7x7, partner max 10 µM), for which the Bliss excess in assay [1] was -0.0011; in assay [2] it was -0.0437; in assay [3] it was -0.046; in [4], 0.0221; in assay [5], -0.0219; in [6], -0.0085. The Bliss excess is 0.0329 in [7]; 0.0087 in [8]; -0.131 in assay [9]; -0.0401 in assay [10]; -0.016 in [11]; 0.0255 in assay [12]. Also, the Bliss excess is 0.005 in assay [13]; -0.0343 in [14]; 0.0223 in assay [15]; 0.0174 in assay [16]; -0.0225 in [17]; -0.0152 in assay [18]. The Bliss excess was 0.0516 in [19] and -0.0251 in assay [20].
